Patent US5693488A, “Transmembrane tyrosine phosphatase, nucleic acids encoding the same, and methods of use thereof” (The Rockefeller University, priority 1994, dated 1997)

Tests used:
[1] = test system: ChPTPλ; experiment: PTP assay of ChPTPλ immunoprecipitated with A299 from DT40 cells (release of 32Pi from tyrosine-phosphorylated substrate); type: biochemical, chicken; details: for ChPTPλ (% activity): buffer 20 mM Hepes (pH 7.4); for effect on ChPTPλ activity (in words) / effect on ChPTPλ activity: concentration not given (Table 1); for requirement for higher ChPTPλ activity in vitro (in words): chelator
Protocol: For immunoblot (Western) analysis, cells were lysed in 1% SDS containing protease inhibitor mix (1 mM phenylmethylsulfonyl fluoride/2 μg aprotinin per ml/1 μg pepstatin per ml) (Boehringer). […] For immunoprecipitation, cells were solubilized in 1% NP-40/PBS/protease inhibitor mix, then ChPTPλ was immunoprecipitated with pA299 (25).
(§1) Raytide (Oncogene Science) and bovine brain myelin basic protein (Sigma) (20 μg each) were phosphorylated on tyrosines by v-Src (34 pg), purified from a baculovirus expression system (35a), in 50 μl containing 20 mM Tris-HCl, pH 7.2/5 mM MnCl2 /50 μCi [γ-^32 P]ATP at 30° C. for 3 h. Casein and histone 2B (Sigma) were phosphorylated on serines and threonines by the catalytic subunit of calf heart cAMP-dependent protein kinase (1 U, Sigma) in 50 μl including 25 mM Hepes, pH 7.4/10 mM MgCl2 /10 mM DTT/50 μCi [γ-^32 P]ATP. All reactions were terminated by TCA-precipitationand resuspended in Tris-HCl (pH 8.0) as previously described (5).
(§2) […] When bacterial extract was used, assay was done in 50 μl of PTP buffer. After incubating at 30° C. for 30 min, the reactions were stopped, and the released ^32 Pi was measured as previously described (5).

[2] = biological target: T1, pKPTPλ, truncated ChPTPλ containing the intracellular domain (Gallus gallus, UniProt Q91976); experiment: PTP assay of bacterial extract expressing pKPTPλ; type: biochemical, chicken
T1 construct: HindIII/EcoRI fragment in pKKUC12, E. coli DHB4 extract
T1 sequence (Q91976 541-1237): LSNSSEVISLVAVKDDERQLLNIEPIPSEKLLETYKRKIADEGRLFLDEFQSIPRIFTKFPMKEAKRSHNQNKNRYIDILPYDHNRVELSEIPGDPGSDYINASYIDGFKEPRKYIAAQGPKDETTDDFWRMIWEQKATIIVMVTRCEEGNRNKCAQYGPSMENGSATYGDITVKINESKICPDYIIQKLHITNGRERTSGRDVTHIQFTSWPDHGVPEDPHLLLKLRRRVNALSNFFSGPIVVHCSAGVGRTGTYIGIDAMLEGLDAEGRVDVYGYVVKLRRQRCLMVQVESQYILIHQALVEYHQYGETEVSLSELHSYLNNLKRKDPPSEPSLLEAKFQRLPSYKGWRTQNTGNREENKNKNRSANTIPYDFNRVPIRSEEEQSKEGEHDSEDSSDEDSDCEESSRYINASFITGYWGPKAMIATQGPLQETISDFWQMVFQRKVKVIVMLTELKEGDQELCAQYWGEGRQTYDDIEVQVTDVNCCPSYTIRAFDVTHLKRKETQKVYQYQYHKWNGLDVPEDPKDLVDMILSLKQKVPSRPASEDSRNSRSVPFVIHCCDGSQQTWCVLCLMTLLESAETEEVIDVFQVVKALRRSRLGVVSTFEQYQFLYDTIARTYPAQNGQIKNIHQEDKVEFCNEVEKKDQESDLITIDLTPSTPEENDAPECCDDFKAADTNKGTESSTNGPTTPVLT
Protocol: A 2 kb-cDNA fragment encoding the entire intracellular domain of ChPTPλ was excised by HindIII and EcoRI (starting from leucine 520, FIG. 2A-2C) and ligated to the expression vector pKKUC12. The recombinant,pkPTPλ, was transformed into E. coli DHB4 that lacks alkaline phosphatase (35). After induction by 0.4 mM IPTG for 2 h, bacterial extracts were prepared (5) and 5 μl samples were used for PTP assays. The extract of DHB4 containing the vector only was used as a negative control.
as §1, §2

[3] = 10 mM, buffer 20 mM Hepes (pH 7.4), 10 mM DTT, 5 mM EDTA

## [Ca+2].[Cl-].[Cl-] [CaCl2]
[1]; 10 mM, 10 mM DTT, 5 mM EDTA
  ChPTPλ (% activity): 100%
[1]
  effect on ChPTPλ activity (in words): no effect at all
[2]; [3]
  pKPTPλ (% activity): 90%

## O[C@@H](CS)[C@@H](O)CS [DTT]
[1]; 10 nM
  ChPTPλ (% activity): 65%
[1]; 1 mM
  ChPTPλ (% activity): 39%
[1]; 10 mM, reducing reagent
  requirement for ChPTPλ activity (in words): required for ChPTPλ activity
[2]; 10 nM, buffer 20 mM Hepes (pH 7.4)
  pKPTPλ (% activity): 80%

## O=C(O)CN(CCN(CC(=O)O)CC(=O)O)CC(=O)O [EDTA]
[1]; 5 nM, 10 mM DTT
  ChPTPλ (% activity): 100%
[1]
  requirement for higher ChPTPλ activity in vitro (in words): needed for ChPTPλ to reach a higher activity
[2]; pH 7.4, read-out: pKPTPλ (% activity)
  activity at 0.005 µM: 100%

## O=C(O)CN(CCOCCOCCN(CC(=O)O)CC(=O)O)CC(=O)O [EGTA]
[1]; 5 mM, 10 mM DTT
  ChPTPλ (% activity): 100%
[1]
  requirement for higher ChPTPλ activity in vitro (in words): needed for ChPTPλ to reach a higher activity
[2]; 5 mM, buffer 20 mM Hepes (pH 7.4), 10 mM DTT
  activity at 5000 µM: 100%

## O=C(O)CI [Iodoacetate]
[1]; 1 mM
  inhibition of ChPTPλ: > 70%
[1]; 1 mM, 10 mM DTT, 5 mM EDTA
  ChPTPλ (% activity): 29%

## [Cl-].[Cl-].[Mg+2] [MgCl2]
[1]; 10 mM, 10 mM DTT, 5 mM EDTA
  ChPTPλ (% activity): 80%
[1]
  effect on ChPTPλ activity: < 30%
[2]; [3]
  pKPTPλ (% activity): 80%

## [Cl][Mn][Cl] [MnCl2]
[1]; 10 mM, 10 mM DTT, 5 mM EDTA
  ChPTPλ (% activity): 87%
[1]
  effect on ChPTPλ activity: < 30%
[2]; [3]
  pKPTPλ (% activity): 51%
[2]; same assaying conditions (Table 1)
  inhibitory influence on pKPTPλ activity: 49%

## [Na+].[Na+].[O]=[Mo](=[O])([O-])[O-] [Na2 MoO4]
[1]; 0.1 mM
  inhibition of ChPTPλ: > 70%
[1]; 0.1 mM, 10 mM DTT, 5 mM EDTA
  ChPTPλ (% activity): 24%
[2]; 0.1 mM, buffer 20 mM Hepes (pH 7.4), 10 mM DTT, 5 mM EDTA
  pKPTPλ (% activity): 11%

## [Na+].[Na+].[Na+].[O]=[V]([O-])([O-])[O-] [Na3 VO4]
[1]; 0.1 mM, 10 mM DTT, 5 mM EDTA
  ChPTPλ (% activity): 78%
[1]; 1 mM
  inhibition of ChPTPλ: > 70%
[1]; 1 mM, 10 mM DTT, 5 mM EDTA
  ChPTPλ (% activity): 4%
[2]; 1 mM, buffer 20 mM Hepes (pH 7.4), 10 mM DTT, 5 mM EDTA
  pKPTPλ (% activity): 2%

## [Cl-].[Na+] [NaCl]
[1]; 200 mM, 10 mM DTT, 5 mM EDTA
  ChPTPλ (% activity): 100%
[1]
  effect on ChPTPλ activity (in words): no effect at all

## [Cl-].[Cl-].[Zn+2] [ZnCl2]
[1]; 10 mM
  inhibition of ChPTPλ: > 70%
[1]; 10 mM, 10 mM DTT, 5 mM EDTA
  ChPTPλ (% activity): 12%
[2]; [3]
  pKPTPλ (% activity): 1%

## NaPO4
[1]; 10 mM, 10 mM DTT, 5 mM EDTA
  ChPTPλ (% activity): 70%
[1]
  effect on ChPTPλ activity: < 30%
[2]; [3]
  pKPTPλ (% activity): 95%
